Test results taken from the METLIN SMRT retention time set (Domingo-Almenara et al. 2019).

Test: gradient 5% acetonitrile 3 min, to 50% in 2 min, to 85% in 15 min, held 3 min, 100 µL/min
Conditions: column: Zorbax Extend-C18 2.1 x 50 mm; eluents: water / acetonitrile, 0.1% formic acid
Summary of the method: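 Standards, all pure, were combined into mixtures of ~100 molecules and run at 100 μL/min on a Zorbax Extend-C18 column (2.1 × 50 mm, 1.8 μm) with water and acetonitrile, each containing 0.1% formic acid. A coupled quadrupole time-of-flight mass spectrometer operated in positive and negative ionization mode. Retention time values come from computationally picked adduct peaks, each inspected manually.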

| RP-LC retention time | SMILES |
| --- | --- |
| 651 s | CCNC(=O)c1ccc2c(c1)CCN2C(=O)CC |
| 1050 s | CC(=O)N1CCCSc2ccc(S(=O)(=O)N3CCN(c4cccc(Cl)c4)CC3)cc21 |
| 932 s | Cc1ccc(F)c(NS(=O)(=O)c2cn(CC(C)C)c3ncccc23)c1 |
| 634 s | CCOc1ccc(CN2C[C@@H]3C(=O)N(CCc4ccccc4)C(=O)[C@@H]3C2)cc1OC |
| 691 s | O=C(NCCC1CCN(C(=O)Nc2ccc(F)cc2F)CC1)C1CC1 |
| 626 s | COc1ccc2ncc(C#N)c(Nc3cc(OC)c(OC)c(OC)c3)c2c1 |
| 751 s | Cn1c(=O)n(CC(=O)O)c(=O)c2c1nc1n2CCCN1c1ccc(Br)cc1 |
| 630 s | CCC(C)NC(=O)C1CC(=O)N(c2ccc3c(c2)CCN3C(C)=O)C1 (stereo not drawn) |
| 958 s | CC1(C(=O)NCc2ccccc2)CN(S(=O)(=O)c2ccccc2)CC(=O)N1c1cccc(Cl)c1 (stereo not drawn) |
| 580 s | Cn1ncc(N2CCCC(C(=O)O)C2)cc1=O (stereo not drawn) |
| 983 s | CCCS(=O)(=O)c1nc2ccc(NS(=O)(=O)c3ccc(F)c(C)c3)cc2s1 |
| 1200 s | CSc1ccc(C2c3[nH]c4ccccc4c3CCN2C(=O)Cc2cccs2)cc1 (stereo not drawn) |
| 714 s | Cc1nn(C)c(C)c1CNC(=O)c1ccc2nc(Cc3ccccc3)oc2c1 |
| 732 s | CCN1c2ccccc2C(=O)NC12CCN(C(=O)c1ccccc1OC)CC2 |
| 608 s | Cn1nc(C(=O)N2CCCCC2)c2c1CCN(C(=O)CCC(=O)NCC1CCCO1)C2 (stereo not drawn) |
| 1260 s | O=C(NCc1ccc(Cl)cc1)c1c(O)c2cccnc2n(-c2ccccc2)c1=O |
| 788 s | Cc1nn(CCCC(=O)N2CCOCC2)c(=O)c2c(-n3cccc3)n(-c3ccccc3)nc12 |
| 851 s | CCc1nnc(-c2ccc3ccn(CC(=O)NCc4ccccc4OC)c3c2)o1 |
| 912 s | COc1ccc(CNC(=O)C2(C)CCN(S(=O)(=O)c3c(C)cc(C)cc3C)CC2)cc1 |
| 709 s | O=C(N1CCN(S(=O)(=O)Cc2ccccc2)CC1)N1C[C@H]2C[C@H](C1)[C@H]1CCCC(=O)N1C2 |
| 1090 s | CCCCN1C(=O)C(C)(C(=O)Nc2ccc(C)cc2C)Oc2cccnc21 (stereo not drawn) |
| 917 s | C=C1C(=O)OC2CC1C(OC(C)=O)C/C(C)=C/CC/C(C)=C\CCC2(C)O (stereo not drawn) |

| RP-LC retention time | SMILES |
| --- | --- |
| 790 s | Cc1ccc(C(=O)N2C[C@@H](Oc3ccccc3)C[C@H]2C(=O)NC2CC2)s1 |
| 632 s | CC(Cc1ccco1)NC(=O)C1CCN(S(C)(=O)=O)CC1 (stereo not drawn) |
| 688 s | CCn1cnc2ccc(C(=O)NC3CCCC3)cc2c1=O |
| 790 s | Cc1noc2nc(C)n(CC(=O)Nc3ccc(F)c(F)c3)c(=O)c12 |
| 725 s | O=C(C1CCN(S(=O)(=O)Cc2ccc(Cl)cc2)CC1)N1CCOCC1 |
| 619 s | COc1ccc(N2C(=O)CCC(C(=O)N3CCOCC3)C2c2ccc(OC)c(OC)c2)cc1 (stereo not drawn) |
| 716 s | CC(CCc1ccccc1)NC(=O)Cn1nc2n(c1=O)CCCC2 (stereo not drawn) |
| 1180 s | COc1ccc(-c2ncc3c(n2)CCN(S(=O)(=O)c2cccc(Cl)c2C)C3)cc1 |
| 1160 s | Cc1ccccc1NS(=O)(=O)c1cccc(-c2nc(-c3ccccc3)no2)c1 |
| 995 s | c1ccc(-c2nc3ccccc3nc2N2CCOCC2)cc1 |
| 842 s | CC(C)COc1cc(=O)n2c(c1C(=O)NC1CCCCC1)CCCCC2 |
| 983 s | Cc1sc2ccn(CC(C)C)c(=O)c2c1C(=O)NCc1ccc(F)cc1F |
| 851 s | CN(C(=O)C1CCCN(c2ncnc3c2nc2n3CCCCC2)C1)c1cccc(Cl)c1 (stereo not drawn) |
| 722 s | Cc1noc(-c2nn(C)c3c2CN(C(=O)C2CCCC2)CC3)n1 |
| 602 s | COc1ccc(N2CCN(C(=O)C3CCN(c4cncnc4N(C)C)CC3)CC2)cc1 |
| 602 s | Cn1nc(CO)c2c1CCN(C(=O)c1cc(-c3cccs3)[nH]n1)C2 |
| 744 s | CC(C)CNC(=O)NCC1Cn2cccc2C(=O)N1Cc1ccccc1 (stereo not drawn) |
| 1100 s | CC1CCCCN1S(=O)(=O)c1ccc2nc(N3CCN(c4ccc(F)cc4)CC3)ccc2c1 (stereo not drawn) |
| 764 s | O=C(NC1CCN(c2ccc(F)cc2)C1=O)c1ccc2c(c1)OCO2 (stereo not drawn) |
| 1110 s | Cc1cc(C)c(C)c(S(=O)(=O)N2CCC(OCc3noc(C4CCCO4)n3)CC2)c1C (stereo not drawn) |
| 750 s | CCSc1nnc(-c2nn(C)c3c2CN(S(=O)(=O)CC)CC3)n1CC |
| 1040 s | CCn1c(=O)c(C(=O)N2CCN(c3cc(C)ccc3C)CC2)nc2cccnc21 |

| RP-LC retention time | SMILES |
| --- | --- |
| 587 s | Cc1nnc2c(=O)n(CC(=O)N3CCN(C4CCCCC4)CC3)c3cccnc3n12 |
| 684 s | COCCN1C(=O)Cc2ccccc2C1C(=O)NCc1ccccc1 (stereo not drawn) |
| 892 s | Cc1nc(C2CN(S(=O)(=O)c3ccccc3C(F)(F)F)CC23CCOCC3)no1 (stereo not drawn) |
| 922 s | Cc1cccc(OCC(=O)c2ccc3c(c2)N(C(C)C(=O)N2CCCC2)C(=O)CO3)c1C (stereo not drawn) |
| 723 s | Cc1cc(C)c(-c2noc(C)n2)c(NC(=O)C2CCCCC2)n1 |
| 733 s | O=S(=O)(c1ccccc1)N1CCC(N2C[C@H](Oc3ccccc3)[C@@H]2c2ccncc2)CC1 |
| 1050 s | CC(C)CC1OC(=O)C2=CCCCC21 (stereo not drawn) |
| 891 s | O=C(Cn1ccn2nc(-c3ccc(F)cc3)c(CO)c2c1=O)Nc1ccc(Br)cc1 |
| 703 s | O=C(Nc1cccc(Br)c1)N1CCN(Cc2nc3cccnc3n2-c2ccccc2)CC1 |
| 711 s | COC(=O)c1cc(OCC(=O)Nc2ccccc2)c2cc(OC)c(OC)cc2n1 |
| 1220 s | Cc1ccc(-c2nsc3c(=O)n(C)c(SCC(=O)N4CCOc5ccc(C)cc54)nc23)cc1 |
| 1050 s | CCc1cc(-c2csc(S(=O)(=O)Nc3ccc(C)c(C)c3)c2)on1 |
| 592 s | Cc1nc(NC2=NCN(Cc3cccnc3)CN2)nc2c(C)cccc12 |
| 786 s | O=C(Cn1c(=O)c(=O)n(Cc2ccccc2)c2ncccc21)NCc1ccco1 |
| 1110 s | Cc1sc(-c2cc(C(F)(F)F)[nH]n2)cc1S(=O)(=O)N1CCN(c2ccc(F)cc2)CC1 |
| 909 s | COc1ccc(Cl)cc1S(=O)(=O)N1CCC(C(=O)NCCc2ccccc2)CC1 |
| 788 s | Cn1cnc(S(=O)(=O)N2CCC(Oc3ccc(-c4noc(C5CC5)n4)cc3)C2)c1 (stereo not drawn) |
| 820 s | COc1cccc(C(=O)NCCc2c[nH]c3ccc(F)cc23)c1 |
| 866 s | O=C(Nc1cccnc1)N1CCC(Cc2cccc(Oc3ccc(C(F)(F)F)cn3)c2)CC1 |
| 1100 s | Cc1ccc(-c2ccc(=O)n(CCc3nc(-c4ccc(F)cc4)no3)n2)cc1C |
| 759 s | Cc1cc(C)c(C(=O)N2CCC(CC(=O)NCc3ccc(F)cc3)CC2)[nH]1 |
| 1210 s | CCc1ccccc1NS(=O)(=O)c1cc(-c2cc(C(F)(F)F)on2)sc1C |

| RP-LC retention time | SMILES |
| --- | --- |
| 740 s | CC(C)CCNC(=O)Cn1c(=O)c2cnc(-c3ccc(Cl)cc3)nc2n(C)c1=O |
| 604 s | Cc1cc(NC(=O)C2CCN(c3ccc(-c4cccs4)nn3)CC2)sn1 |
| 817 s | Cn1c(=O)sc2cc(S(=O)(=O)N3CCC(C(=O)Nc4ccc5c(c4)OCO5)CC3)ccc21 |
| 1140 s | CCc1nnc2ccc(-c3noc(-c4ccc(C)c(C)c4)n3)cn12 |
| 664 s | CC(C)CN1CCN(C(=O)c2cc3c(s2)CCN(C(=O)c2ccc(Cl)cc2)C3)CC1 |
| 804 s | Cc1ccc(NC(=O)C2CCN(c3nc(C4CCC4)nc4csc(C)c34)CC2)c(C)c1 |
| 906 s | CC(C)c1ccccc1NC(=O)CN1CCN(c2ccc(Cl)cc2)C1=O |
| 853 s | Cc1csc(NC(=O)CN2C(=O)C3CCCCN3c3ccc(S(=O)(=O)N(C)C)cc32)n1 (stereo not drawn) |
| 1050 s | Cc1ccc(-c2nc(-c3ccnc(N4CCOCC4)c3)no2)cc1 |
| 672 s | O=C(CN1CCN(Cc2ccc(F)cc2)C1=O)NCCCn1cccn1 |
| 556 s | CN(C)C1(CC2CC2)CCN(C(=O)c2ccco2)CC1 |
| 583 s | CCOc1ccccc1CN1CCc2nc(N3CCN(c4ccccn4)CC3)ncc2C1 |
| 592 s | CC(=O)N(Cc1nn(C)c2c1CN(Cc1cccc(O)c1)CC2)c1ccccc1 |
| 607 s | Cc1oc(-c2[nH]ncc2C(=O)N2CCOCC2)cc1S(=O)(=O)NC1CC1 |
| 1120 s | CCCNC(=O)c1ccc(CN2CC(=O)N3CCCCC3C2=O)cc1 (stereo not drawn) |
| 1410 s | Cc1cccc(-c2nc(C3CCN(S(=O)(=O)c4ccc5c(c4)CCCC5)CC3)no2)c1 |
| 870 s | CCC(C)NC(=O)Cn1cccc(-c2nc(-c3ccc(Br)cc3)no2)c1=O (stereo not drawn) |
| 922 s | Cc1ccc(CNC(=O)COc2cc(C)nc(N3CCN(c4ccccc4)CC3)n2)cc1 |
| 622 s | COc1ccccc1NC(=O)c1cn2c(n1)CCCC2 |
| 594 s | CN(C)c1cccc(C(=O)Nc2cccc(-c3nnc4n3CCCC4)c2)c1 |
| 1140 s | Cc1ccc(-c2nc(-c3ccc4nnc(C)n4c3)no2)c(C)c1 |
| 938 s | CC(C)CCNC(=O)CN1C(=O)CCCc2cc(S(=O)(=O)N3CCC(C)CC3)ccc21 |
